Values of other authors, collected in patent publication US8728545B2, “Extraction method for providing an organic certifiable Stevia rebaudiana extract” (Justbio Inc., priority 2010, dated 2014).
Peptide text beside a SMILES is read from it.

What was measured:
[1] = in water; Crammer and Ikan, 1986
[2] = for Sweetness compared to sucrose: principal steviol glycosides found in stevia leaves; for Relative sweetness among steviol glycosides (in words): comparison between glycosides, Crammer and Ikan 1986, 1987

Compound	Sweetness in Sucrose Equivalence (% SE) [1]	Sweetness compared to sucrose [2]	Relative sweetness among steviol glycosides (in words) [2]
COC(=O)[C@H](Cc1ccccc1)NC(=O)[C@H](CC(=O)O)NCCC(C)(C)C [Neotame]	15.1 % SE	–	–
C=C1C[C@@]23CC[C@H]4[C@@](C)(CCC[C@@]4(C)C(=O)[O-])[C@@H]2CC[C@]1(O[C@@H]1O[C@@H](CO)[C@@H](O)[C@H](O)[C@@H]1O[C@@H]1O[C@@H](CO)[C@@H](O)[C@H](O)[C@@H]1O)C3.[Na+] [Steviobioside]	–	100-125 fold	–
OC[C@H]1O[C@H](O[C@]2(CCl)O[C@H](CCl)[C@@H](O)[C@@H]2O)[C@H](O)[C@@H](O)[C@H]1Cl [Sucralose]	13.0 % SE	–	–
COC(=O)[C@H](Cc1ccccc1)NC(=O)[C@@H](N)CC(=O)O [Aspartame] (H-Asp-Phe-OMe)	16.0 % SE	–	–
C=C1C[C@@]23CC[C@H]4[C@@](C)(CCC[C@@]4(C)C(=O)O[C@@H]4O[C@H](CO)[C@@H](O)[C@H](O)[C@H]4O[C@@H]4O[C@H](CO)[C@@H](O)[C@H](O)[C@H]4O)[C@@H]2CC[C@]1(O[C@@H]1O[C@H](CO)[C@@H](O)[C@H](O)[C@H]1O[C@@H]1O[C@H](CO)[C@@H](O)[C@H](O)[C@H]1O)C3 [Rebaudioside E]	–	150-300 fold	as sweet as stevioside
C=C1C[C@@]23CC[C@H]4[C@@](C)(CCC[C@@]4(C)C(=O)O[C@@H]4O[C@H](CO)[C@@H](O)[C@H](O)[C@H]4O[C@@H]4O[C@H](CO)[C@@H](O)[C@H](O)[C@H]4O)[C@@H]2CC[C@]1(O[C@@H]1O[C@H](CO)[C@@H](O)[C@H](O[C@@H]2O[C@H](CO)[C@@H](O)[C@H](O)[C@H]2O)[C@H]1O[C@@H]1O[C@H](CO)[C@@H](O)[C@H](O)[C@H]1O)C3 [Rebaudioside D]	10.1 % SE	240-450 fold	as sweet as rebaudioside A
Rebaudioside C	–	50-120 fold	–
O=C1[N-]S(=O)(=O)c2ccccc21.[Na+] [Saccharin-Na]	10.1 % SE	–	–
Rebaudioside B	–	300-350 fold	–
COc1ccc(CCC(=O)c2c(O)cc(O[C@@H]3O[C@H](CO)[C@@H](O)[C@H](O)[C@H]3O[C@@H]3O[C@@H](C)[C@H](O)[C@@H](O)[C@H]3O)cc2O)cc1O [Neohesperidin Didydrochalcone]	9.8 % SE	–	–
CC1=CC(=O)[N-]S(=O)(=O)O1.[K+] [Acesulfame-K]	11.6 % SE	–	–
C=C1C[C@@]23CC[C@H]4[C@@](C)(CCC[C@@]4(C)C(=O)O[C@@H]4O[C@H](CO)[C@@H](O)[C@H](O)[C@H]4O)[C@@H]2CC[C@]1(O[C@@H]1O[C@H](CO)[C@@H](O)[C@H](O)[C@H]1O[C@@H]1O[C@@H](C)[C@H](O)[C@@H](O)[C@H]1O)C3 [Dulcoside A]	–	50-120 fold	–
CC1(C)[C@@H](O[C@H]2O[C@H](C(=O)O)[C@@H](O)[C@H](O)[C@H]2O[C@@H]2O[C@H](C(=O)O)[C@@H](O)[C@H](O)[C@H]2O)CC[C@]2(C)[C@H]3C(=O)C=C4[C@@H]5C[C@@](C)(C(=O)O)CC[C@]5(C)CC[C@@]4(C)[C@]3(C)CC[C@@H]12.N [Monoammonium Glycyrhisinate]	7.3 % SE	–	–
O=S(=O)([O-])NC1CCCCC1.[Na+] [Cyclamate-Na]	15.2 % SE	–	–
C=C1C[C@@]23CC[C@H]4[C@@](C)(CCC[C@@]4(C)C(=O)O[C@@H]4O[C@H](CO)[C@@H](O)[C@H](O)[C@H]4O)[C@@H]2CC[C@]1(O[C@@H]1O[C@H](CO)[C@@H](O)[C@H](O[C@@H]2O[C@H](CO)[C@@H](O)[C@H](O)[C@H]2O)[C@H]1O[C@@H]1O[C@H](CO)[C@@H](O)[C@H](O)[C@H]1O)C3 [Rebaudioside A]	–	250-450 fold	the sweetest
C=C1C[C@@]23CC[C@H]4[C@@](C)(CCC[C@@]4(C)C(=O)O[C@@H]4O[C@H](CO)[C@@H](O)[C@H](O)[C@H]4O)[C@@H]2CC[C@]1(O[C@@H]1O[C@H](CO)[C@@H](O)[C@H](O)[C@H]1O[C@@H]1O[C@H](CO)[C@@H](O)[C@H](O)[C@H]1O)C3 [Stevioside]	–	300 fold	–
